Laboratory results taken from patent US8501778B2, “Aralkyl piperidine derivatives and their uses as antalgic or ataractic agent” (priority 2008, dated 2013).
Where two headings read alike, the source gives them in different places. Marks after values point to notes of the source that are not given here.

How the values were obtained:
Kunming mice [1] = assay: Hot Plate Method in mice (antalgic effect); type: in vivo
Kunming mice [2] = assay: Sedative effect: spontaneous activity of the mice recorded with AC power tube; type: in vivo; conditions: single dosage 20 mg/kg, unit not given
Description: Kunming mice, clean class KM, purchased from Shanghai SLAC LABORATORY ANIMAL CO. LTD, breeding at general environment.
The compounds are formulated to solutions of 4 mg/ml, 2 mg/ml, and 1 mg/ml with water for injection. Animals in the control group and treatment group are all administered through subcutaneous injection at neck.
First of all, the mice in the treatment group are administrated with a solution of tested compounds (10 mg/kg, 20 mg/kg, 40 mg/kg) through subcutaneous injection at neck, the negative control group is administrated with physiological saline (20 ml/kg) orally, and the positive control group is administrated with Aspirin (20 ml/kg) orally. Each group is administrated with 10 ml/kg of 0.7% acetic acid via intraperitoneal injection (i.p.) after one hour. After 5 minutes, times of twisting response of each group of mice is recorded in 15 minutes, and twisting response inhibiting rate of each of the treatment groups is calculated according to the following equation: Inhibiting rate %=(average twisting times of negative control group−average twisting times of treated group)/average twisting times of negative control group×100% 6. A Sedative Effect is Evaluated by Using AC Power Tube to Record Spontaneous Activity of the Mice. 7. Testing the Antalgic and Sedative Effect of the Compounds with Single Dosage (20 mg/kg), See Table 2 for Details.

Kunming mice [3] = assay: Acetic Acid Twisting Method in mice (antalgic effect); type: in vivo; conditions: for twisting response inhibiting rate (%): subcutaneous injection at neck; for twisting response inhibiting rate (%) / antalgic: mice; for antalgic: single dosage 20 mg/kg, acetic acid twisting, unit not given (method: inhibiting rate %)
mice [4] = assay: Jump test in mice (physical dependence, naloxone precipitated); conditions: III-15 seven times in two days, 20-120 mg/kg PO, naloxone 2 mg/kg i.v. three hours after last dosing
mice [5] = conditions: mouse, in vivo
mice [6] = assay: Conditioned Place Preference test in mice (psychological dependence); conditions: III-15 60 mg/kg oral gavage each day for six consecutive days
mice [7] = conditions: daily for eight days; III-15 60 mg/kg oral gavage, Morphine 10 mg/kg PO; Hot Plate 15 minutes after each administration
[8] = Animal model studies, summary (oral absorption, therapeutic index); conditions: summary statement
[9] = test system: S. typhimurium TA97, TA98, TA100 and TA102; assay: Bacterial Reverse-Mutation Assay (Ames TS); type: cell-based
Description: Strains: S. typhimurium TA97, TA98, TA100 and TA102.
Results: The assay included two parts: without S9 and with S9.

[10] = Mus musculus, sc, read-out: twisting response inhibiting rate (%)

## COC1(CC(=O)c2ccccc2)CCN(Cc2ccc(NC(C)=O)cc2)CC1.Cl [VIII-1, N-p-acetylaminobenzyl-4-benzoylmethyl-4-methoxylpiperidine hydrochloride]
Kunming mice [1]; 10 mg/kg, subcutaneous injection at neck, 1 hour after dosing, hot plate 55.5° C.
  Increasing rate of pain threshold (%): 61.04%
Kunming mice [1]; 20 mg/kg, subcutaneous injection at neck, 1 hour after dosing, hot plate 55.5° C.
  Increasing rate of pain threshold (%): 76.63* %
Kunming mice [1]; 40 mg/kg, subcutaneous injection at neck, 1 hour after dosing, hot plate 55.5° C.
  Increasing rate of pain threshold (%): 105.20* %
Kunming mice [2]
  sedative: 48
Kunming mice [3]; 10 mg/kg
  twisting response inhibiting rate (%): 35.03* %
Kunming mice [3]; 20 mg/kg
  twisting response inhibiting rate (%): 42.11%
Kunming mice [3]; 40 mg/kg
  twisting response inhibiting rate (%): 57.69%
Kunming mice [3]
  antalgic: 64

## CC(=O)Nc1ccc(CN2CCC(O)(CC(O)c3ccccc3)CC2)cc1.Cl (stereo not shown) [Compound V-2, N-p-acetylaminobenzyl-4-(2-hydroxy-2-phenylethyl)-4-piperidinol hydrochloride]
Kunming mice [2]
  sedative: 39.6
Kunming mice [3]
  antalgic: 80

## CC(=O)Nc1ccc(CN2CCC(O)(CC(=O)c3ccccc3)CC2)cc1.Cl [III-6, N-p-acetylaminobenzyl-4-benzoylmethyl-4-piperidinol hydrochloride]
Kunming mice [2]
  sedative: 75
Kunming mice [3]
  antalgic: 45

## CN1CC[C@]23c4c5ccc(O)c4O[C@H]2[C@@H](O)C=C[C@H]3[C@H]1C5 [Morphine, reference compound]
Mice [4]
  jumping behavior after naloxone (physical dependence): obvious jumping behavior
Mice [5]
  reversal of the antalgic effect by naloxone: is reversed by naloxone
Kunming mice [1]; Mus musculus, sc, 1 h, positive control, 2 mg/kg (remark), subcutaneous injection, hot plate, read-out: Increasing rate of pain threshold (%)
  change in vivo at 2 mg/kg: 202%
Mice [6]
  Conditioned Place Preference (psychological dependence): show obvious Conditioned Place Preference
Mice [7]
  change of pain threshold / antalgic effect on consecutive administration (drug resistance): reduces gradually starting from the second day of administration

## COc1ccc(CN2CCC(O)(CC(=O)c3ccccc3)CC2)cc1.Cl [III-15, N-p-methoxybenzyl-4-benzoylmethyl-4-piperidinol hydrochloride]
[8]
  absorption after oral administration: good absorption after oral administration
Mice [4]
  jumping behavior after naloxone (physical dependence): no jumping behavior is observed
Mice [5]
  reversal of the antalgic effect by naloxone: does not reversed by naloxone
Kunming mice [1]; Mus musculus, sc, 10 mg/kg, subcutaneous injection at neck, 1 hour after dosing, hot plate 55.5° C., read-out: Increasing rate of pain threshold (%)
  change in vivo at 10 mg/kg: 77.7%
Kunming mice [1]; Mus musculus, sc, 20 mg/kg, subcutaneous injection at neck, 1 hour after dosing, hot plate 55.5° C., read-out: Increasing rate of pain threshold (%)
  change in vivo at 20 mg/kg: 118%
Kunming mice [1]; Mus musculus, sc, 40 mg/kg, subcutaneous injection at neck, 1 hour after dosing, hot plate 55.5° C., read-out: Increasing rate of pain threshold (%)
  change in vivo at 40 mg/kg: 260%
Mice [6]
  Conditioned Place Preference (psychological dependence): do not show Conditioned Place Preference
Mice [7]
  change of pain threshold / antalgic effect on consecutive administration (drug resistance): does not show weakening
[9]; TA97, TA98, TA100, TA102, without S9 and with S9, all tested doses
  Ames test result (revertants): negative
[9]; without S9 TA98 5000 μg/plate and with S9 TA97 5000 μg/plate, no inhibition at all other doses and strains
  inhibitory effect on bacterial growth: inhibitory effects on bacterial for the growth were seen
Kunming mice [3]; Mus musculus, sc, read-out: antalgic
  inhibition in vivo at 20 mg/kg: 96%
Kunming mice [3]; [10]
  inhibition in vivo at 10 mg/kg: 55.4%
  inhibition in vivo at 20 mg/kg: 94.4%
  inhibition in vivo at 40 mg/kg: 100%
